# According to patent US11584762B1, “Near-infrared fluorescent indicators for lysosome and application thereof” (DALIAN UNIVERSITY OF TECHNOLOGY, priority 2022, dated 2023):
# Columns and labels:
# [1] = Photophysical properties in acetonitrile (absorption, emission, extinction coefficient, quantum yield); format: physicochemical
# Description: The photophysical properties of compounds D1, D2, D25 and D26 were investigated. Compounds D1, D2, D25 and D26 were dissolved in DMSO to obtain a 1 mM stock solution. The stock solution was further diluted with acetonitrile to obtain a 1 μM testing solution, of which 1 μL trifluoroacetic acid (0.1% by volume) was added. The absorption spectrum, emission spectrum, quantum yield and molar extinction coefficient of these testing solutions were measured. The absorption spectrum was recorded on Agilent 8453 UV-Vis-Spectrophotometer, and the fluorescent spectrum was recorded on an Agilent fluorescence spectrometer. The maximum absorption spectrum (λab), the maximum emission spectrum (λem), the molar extinction coefficient (ε), and the fluorescence quantum yield (Φ^1) of compounds D1, D2, D25 and D26 were shown in Table 1.
# (§1) The photophysical properties of compounds D6, D15, D20, D22, D46 and D51 are provided in Table 2, following a similar testing method as example 14 and example 15. […] It can be seen that such property is in favor of confocal imaging of lysosomes without PBS washing.
# [2] = Emission in 2 mM CTAB (pH 3) or H2O (pH 7); format: physicochemical; settings: for Emission in 2 mM CTAB at pH 3 / Fluorescence in water at pH 7: FIG. 1, 1 μM; for Emission in 2 mM CTAB at pH 3: pH 3, lysosome-like microenvironment; for Fluorescence in water at pH 7: H2O; for Fluorescence emission in 2 mM CTAB at pH 3 / Fluorescence emission in water at pH 7: Table 2
# Description: The properties of compounds D1, D2, D25 and D26 were investigated. Compounds D1, D2, D25 and D26 were dissolved in DMSO to obtain a 1 mM stock solution. The stock solution was further diluted with 2 mM CTAB (pH 3) or H2O (pH 7) to obtain a 1 μM testing solution. The absorption spectrum and emission spectrum of the testing solution were measured. The evaluated method of photophysical properties was the same as example 13.
# CTAB (Hexadecyl trimethyl ammonium bromide) is a cationic surfactant with a critical micelle concentration of 0.9 mM. CTBA exists in the form of micelles in a 2 mM solution of CTAB, which not only helps dissolve dye molecules but also simulates the acidic microenvironment of lysosomes. […] It is preliminarily determined that such property is in favor of confocal imaging of lysosomes without PBS washing.
# as §1
# [3] = test system: lysosomes of RAW 264.7 cells; experiment: Confocal imaging of live cell lysosomes co-stained with DND-26; format: cell-based; settings: co-stain 1 μM DND-26, PBS washed
# Description: The fluorescent imaging of compounds D1, D6, D22 and D25. After incubating for 24 hours in a cell incubator with 5% CO2 at 37° C., RAW 264.7 cells were incubated with 1 μM D1 or 1 μM D6 for 5 min, or incubated with 1 μM D22 or 1 μM D25 for 60 min, then incubated with 1 μM DND-26 which is green lysosome probe for 5 min, washed three times with PBS, then imaged using a confocal microscope.
# The fluorescence image of compounds D15, D20, D46 and D51. After incubating for 24 hours in a cell incubator with 5% CO2 at 37° C., RAW 264.7 cells were incubated with 1 μM D15 or 1 μM D20 for 5 min, or incubated with 1 μM D46 or 1 μM D51 for 60 min, then incubated with 1 μM DND-26 for 5 min, washed three times with PBS, and then imaged using a confocal microscope.
# [4] = Confocal imaging of stained vesicles at pH 4.0 and pH 7.4; settings: 60 min
# Description: We further investigate the targeting feature by imaging vesicles stained with D25 at pH 4.0 and pH 7.4.
# The “droplet transfer” method was used to prepare vesicles composed of PC/Chol molar ratios of 7:3, following six steps as below: 1) Prepare 200 mM glucose aqueous solution and sucrose aqueous solution respectively. 2) Hydrophobic phase (0.3 mM PC in decane+0.3 mM CL in decane for PC/CL). 3) The hydrophobic phase was prepared by adding PC (0.3 mM) and possibly other lipids (SM and/or Chol) in decane. 4) Pipette the aqueous phase consisting of 20 μL of sucrose solution and the hydrophobic phase consisting of 600 μL PC/CL into a 1.5 ml centrifuge tube and shake them well. 5) Centrifuge the tube, then remove the mineral oil and wash the GUVs to remove excess solutes. 6) Suspend 30 μL of the pellet in 20 μL of 200 mM glucose solution. 7) Pipette 20 μL onto a glass slide and observe with a confocal microscope and fluorescence lifetime microscope.
# Method for vesicles imaging, 30 μL of the vesicles was diluted with 20 μL of 200 mM glucose solution, then stained with D25 in pH 4 PBS (or in pH 7.4 PBS) for 60 min and imaged with a confocal microscope.
# [5] = test system: lysosomal membrane of RAW 264.7 cells; experiment: STED-based super-resolution imaging; format: cell-based; settings: 250 nM for 60 min
# Description: We used D25 as a representative to evaluate its ability to perform STED-based super-resolution imaging. After incubating for 24 hours in a cell incubator with 5% CO2 at 37° C., RAW 264.7 cells were stained with 250 nM D25 for 60 min and imaged using STED based microscope after replacing the staining solution with fresh MEM.
# [6] = test system: lysosomes of RAW 264.7 cells; experiment: Confocal imaging of lysosomes after chloroquine stimulation; format: cell-based; settings: 1 μM, co-staining D25 and DND-26, 20 µM chloroquine, within 5 min
# Description: The fluorescence imaging of compound D25. After incubating for 24 hours in a cell incubator with 5% CO2 at 37° C., RAW 264.7 cells were incubated with 1 μM D25 for 60 min, then incubated with 1 μM DND-26 for 5 min, washed three times with PBS, and then imaged using a confocal microscope after adding 20 µM chloroquine. Chloroquine can cause protons to escape from lysosomes, so it can be used to raise the pH of the lysosomes.
# [7] = test system: lysosomes of RAW 264.7 cells; experiment: Confocal imaging of live cell lysosomes without washing; format: cell-based; settings: 100 nM for 60 min, no washing
# Description: The fluorescence image of compound D25. After incubating for 24 hours in a cell incubator with 5% CO2 at 37° C., RAW 264.7 cells were incubated with 100 nM D25 for 60 min and then imaged using a confocal microscope.
# [8] = Table 1, acetonitrile, 1 μM, trifluoroacetic acid 0.1% by volume
Structure (SMILES),"Φ^1 (fluorescence quantum yield) ([1]; Table 1, acetonitrile)","ε (molar extinction coefficient) ([1]; Table 1, acetonitrile)","λab (maximum absorption) [1, 8]","λem (maximum emission) [1, 8]",Emission in 2 mM CTAB at pH 3 [2],Fluorescence in water at pH 7 [2],"Φ^1 (fluorescence quantum yield) ([1]; Table 2, in acetonitrile)","ε (molar extinction coefficient) ([1]; Table 2, in acetonitrile)","λab (maximum absorption) ([1]; Table 2, in acetonitrile)","λem (maximum emission) ([1]; Table 2, in acetonitrile)",Lysosome targeting in confocal images ([3]; 1 μM for 60 min),Fluorescence emission in 2 mM CTAB at pH 3 [2],Fluorescence emission in water at pH 7 [2],Lysosome targeting in confocal images ([3]; 1 μM for 5 min),Fluorescence of stained vesicles at pH 4 ([4]; pH 4 PBS),Fluorescence of stained vesicles at pH 7.4 ([4]; pH 7.4 PBS),Localization in super-resolution image [5],Change of fluorescence intensity after adding chloroquine [6],Lysosome imaging without washing [7]
CC1=C(Cl)C(C)=[N+]2C1=C(c1ccccc1)c1c(C)c(Cl)c(C=Cc3ccc4c(c3)c3ccccc3n4Cc3cn(CCN(C)CCN(C)C)nn3)n1[B-]2(F)F [D2],0.63,10.4 M^−1 · cm^−1 × 10^4,604 nm,650 nm,stable emission,almost no fluorescence,–,–,–,–,–,–,–,–,–,–,–,–,–
CCOC(=O)CCC1=C2C(C)=CC(C)=[N+]2[B-](F)(F)n2c(C=Cc3ccc4c(c3)c3ccccc3n4Cc3cn(CCCN(C)CCN(C)C)nn3)cc(C)c21 [D22],–,–,–,–,–,–,0.81,10.8 M^−1 · cm^−1 × 10^4,611 nm,661 nm,can specifically target lysosomes,Stable,No,–,–,–,–,–,–
CC1=C(Cl)C(C)=[N+]2C1=C(c1ccc(C)cc1)c1c(C)c(Cl)c(C=Cc3ccc4c(c3)c3ccccc3n4Cc3cn(CCN4CCNCC4)nn3)n1[B-]2(F)F [D6],–,–,–,–,–,–,0.73,8.1 M^−1 · cm^−1 × 10^4,590 nm,615 nm,–,Stable,No,can specifically target lysosomes,–,–,–,–,–
CC1=C(Cl)C(C=Cc2ccc3c(c2)c2ccccc2n3Cc2cn(CCN(C)CCN(C)C)nn2)=[N+]2C1=C(c1ccccc1)c1c(C)c(Cl)c(C=Cc3ccc4c(c3)c3ccccc3n4Cc3cn(CCN(C)CCN(C)C)nn3)n1[B-]2(F)F [D26],0.72,11.3 M^−1 · cm^−1 × 10^4,692 nm,732 nm,stable emission,almost no fluorescence,–,–,–,–,–,–,–,–,–,–,–,–,–
CC1=CC(C=Cc2ccc3c(c2)c2ccccc2n3Cc2cn(CCN(C)CCN(C)C)nn2)=[N+]2C1=C(c1ccccc1)c1c(C)cc(C=Cc3ccc4c(c3)c3ccccc3n4Cc3cn(CCN(C)CCN(C)C)nn3)n1[B-]2(F)F [D25],0.94,9.2 M^−1 · cm^−1 × 10^4,664 nm,684 nm,stable emission,almost no fluorescence,–,–,–,–,can specifically target lysosomes,–,–,–,intense fluorescence,weak fluorescence,localized in the lysosomal membrane,only changed slightly,can be used for lysosome images without washing
COc1ccc(C2=C3C(C)=C(Cl)C(C=Cc4ccc5c(c4)c4ccccc4n5Cc4cn(CCN5CCNCC5)nn4)=[N+]3[B-](F)(F)n3c(C=Cc4ccc5c(c4)c4ccccc4n5Cc4cn(CCN5CCNCC5)nn4)c(Cl)c(C)c32)cc1 [D51],–,–,–,–,–,–,0.79,11.1 M^−1 · cm^−1 × 10^4,689 nm,728 nm,can specifically target lysosomes,Stable,No,–,–,–,–,–,–
CCOC(=O)CCC1=C2C(C)=CC(/C=C/c3ccc4c(c3)c3ccccc3n4Cc3cn(CCCN(C)CCN(C)C)nn3)=[N+]2[B-](F)(F)n2c(/C=C/c3ccc4c(c3)c3ccccc3n4Cc3cn(CCCN(C)CCN(C)C)nn3)cc(C)c21 [D46],–,–,–,–,–,–,0.89,11.0 M^−1 · cm^−1 × 10^4,659 nm,675 nm,can specifically target lysosomes,Stable,No,–,–,–,–,–,–
CC1=CC(C)=[N+]2C1=C(c1ccccc1)c1c(C)cc(C=Cc3ccc4c(c3)c3ccccc3n4Cc3cn(CCN(C)CCN(C)C)nn3)n1[B-]2(F)F [D1],0.83,7.5 M^−1 · cm^−1 × 10^4,581 nm,603 nm,stable emission,almost no fluorescence,–,–,–,–,–,–,–,can specifically target lysosomes,–,–,–,–,–
